Measured values: patent US11155573B2, “Bile salt hydrolase probe and method of making and using the same” (Battelle Memorial Institute, priority 2017, dated 2021)

Assays:
BSH [1] = experiment: In vivo probe labeling in L. plantarum; assay type: cell-based, Lactobacillus plantarum
Procedure: (§1) The BSH probes were then assayed for retention of function in the presence of a complex cell lysate. Purified BSH was added to an organism that is not known to endogenously express BSH to precisely control this variable. […] After confirming that the BSH-ABP is capable of labeling BSH in complex biological mixtures, application of the probe was assayed for detection of endogenous BSH. L. plantarum was used because its expression of BSH is well-documented, and this organism is found in many popular over-the-counter probiotic formulations for support of healthy cholesterol levels.

BSH [2] = experiment: Probe labeling of endogenous BSH in L. plantarum lysate; assay type: binding, Lactobacillus plantarum
Procedure: as §1

[3] = tested on: human gut microbiome lysate; experiment: BSH ABP labeling in human gut microbiome lysate; assay type: binding
Procedure: The probes were assayed for activity in human gut microbiome extracts.

[4] = target: T1, purified recombinant Lactobacillus plantarum BSH (Lactiplantibacillus plantarum, UniProt Q06115); experiment: BA-ABP labeling of purified BSH; assay type: binding
T1 sequence (Q06115 1-324): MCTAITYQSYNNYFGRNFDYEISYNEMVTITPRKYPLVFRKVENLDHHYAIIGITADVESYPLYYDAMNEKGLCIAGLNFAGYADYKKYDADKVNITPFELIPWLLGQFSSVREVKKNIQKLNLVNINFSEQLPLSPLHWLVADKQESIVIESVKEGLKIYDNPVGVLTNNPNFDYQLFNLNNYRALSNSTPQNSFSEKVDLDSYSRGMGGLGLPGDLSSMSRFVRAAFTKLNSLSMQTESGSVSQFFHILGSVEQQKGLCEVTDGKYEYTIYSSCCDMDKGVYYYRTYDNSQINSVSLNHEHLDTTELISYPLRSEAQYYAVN
Procedure: Binding of BA-ABP to purified recombinant Lactobacillus plantarum BSH was assessed through incubation with probe in buffer (FIG. 18A). […] Additionally, labeling was time-dependent.

BSH [5] = target: T2, BSH (Lactiplantibacillus plantarum, UniProt Q06115); experiment: BA-ABP labeling of purified BSH added to Escherichia coli bacterial lysate; assay type: binding
T2 sequence (Q06115 1-324): T1 sequence (Q06115 1-324)
Procedure: as §1

purified BSH [6] = details: read-out: Michaelis-Menten constant (Km); turnover by purified BSH, 0.1 M sodium phosphate pH 6, 37° C.
Procedure: Reaction volumes of 100 μL were used in Microfluor1 black flat bottom microtiter 96 well plates (Thermo Scientific). 50 μL of enzyme (40 μg/ml) in buffer (0.1 M sodium phosphate, pH=6) was added to each well. […] Reactions were immediately placed in a plate reader (SPECTRAmax Gemini XS) pre-warmed to 37° C., and reaction progress was monitored at 450 nm (excitation 350 nm) for 20 minutes. Reactions had final concentrations of 20 μg/ml enzyme, 0.1 M sodium phosphate (pH 6), and 2.5% DMSO.
The initial rate data was used for determination of Km values. For Km determination, the kinetic values were obtained directly from nonlinear regression of substrate-velocity curves in the presence of varying concentrations of BA-AMCA. The equation Y=(Vmax*X)/(Km+X*(1+X/Ki)), X=substrate concentration (μM) and Y=enzyme velocity (RFU/s); was used in the nonlinear regression. Each BA-AMCA Km value was determined using at least three independent experiments.

L. plantarum cells = experiment: Whole-cell Lactobacillus plantarum assay; assay type: cell-based; details: varying amount of CAPE
Procedure: A starter culture was created by inoculation of 5 ml MRS broth from a L. plantarum colony grown on MRS agar. The starter culture was incubated overnight at 37° C. overnight. The 5 ml starter culture was then added to 95 ml fresh MRS broth and grown until the optical density at 600 nm reached 0.7. At that point, the cells were pelleted via centrifugation. The cell pellet was resuspended in 15 ml PBS, and centrifuged. The cells were additionally washed with PBS and pelleted once more. The resulting pellet was suspended in 380 μl PBS. The cell suspension was then serially diluted two-fold. […]

[7] = tested on: endogenously expressed BSH in L. plantarum lysate; experiment: Lactobacillus plantarum lysate assay; assay type: biochemical; details: CAPE 2 mM
Procedure: Reaction volumes of 100 μL were used in Microfluor1 black flat bottom microtiter 96 well plates (Thermo Scientific). […] A 50 μL solution of probe (300 μM) in buffer with 5% DMSO was then added to initiate the reaction. Reactions were immediately placed in a plate reader (SPECTRAmax Gemini XS) pre-warmed to 37° C., and reaction progress was monitored at 450 nm (excitation 350 nm) for 20 minutes.

purified BSH [8] = experiment: GCA and iodoacetamide competition assay; assay type: biochemical; details: CA-AMCA 150 μM, BSH 10 μg/ml
[9] = substrate: Cc1c(CC(=O)O)c(=O)oc2cc(NC(=O)CC[C@@H](C)[C@H]3CC[C@H]4C5[C@H](O)C[C@@H]6C[C@H](O)CC[C@]6(C)[C@H]5C[C@H](O)[C@]34C)ccc12; experiment: purified protein, by the assay type; assay type: biochemical; details: other: individual replicate, purified BSH 20 μg/ml, 0.1 M sodium phosphate pH 6, 2.5% DMSO, 37° C., 20 min, Ex 350/Em 450 nm
Description: Fluorescent signals for substrate turnover could be detected with as low as mid-nanomolar enzyme concentrations, which is considerably less enzyme when compared to micromolar concentrations required for conventional ninhydrin assays with purified BSH. […] Furthermore, robust signals could be reliably observed in the low micromolar substrate concentration range before any indication of substrate inhibition. Product formation was additionally confirmed through coupling of the BSH reaction to a secondary HPLC-based assay.

In the case of `C#CCNC(=O)C=CCC[C@@H](C)[C@H]1CC[C@H]2C3[C@H](O)C[C@@H]4C[C@H](O)CC[C@]4(C)[C@H]3C[C@H](O)[C@]12C` (stereo partly drawn) [BA-ABP], the “labeling in vivo in L. plantarum” value (BSH [1]) is reported as “Labeling in vivo was also confirmed”, the “fluorescence imaging of labeling in L. plantarum lysate” value (BSH [2]) is reported as “a band consistent with BSH, along with several others” and the “labeling in gut microbiome lysate” value [3] is reported as “labeling was observed”. For the same molecule, the “labeling of purified BSH, time dependence” value [4] was “time-dependent”, the “labeling of purified BSH upon addition of free bile salts” value ([4]; competition with native substrate) was “could be attenuated” and the “labeling of purified BSH, dose dependence” value ([4]; incubation with probe in buffer) was “dose-dependent”. The “fluorescent gel labeling, BSH added to lysate of organism not expressing BSH” value (BSH [5]) was “a fluorescent band that is consistent with BSH labeling, along with several other unknown targets”.

`Cc1c(CC(=O)O)c(=O)oc2cc(NC(=O)CC[C@@H](C)[C@H]3CC[C@H]4C5[C@H](O)C[C@@H]6C[C@H](O)CC[C@]6(C)[C@H]5C[C@H](O)[C@]34C)ccc12` (stereo partly drawn) [CA-AMCA] was tested, and the Km (purified BSH [6]) was 26 µM.

With `O=C(/C=C/c1ccc(O)c(O)c1)OCCc1ccccc1` [CAPE, caffeic acid phenethyl ester] the “effect on probe velocities in whole-cell suspension” value (L. plantarum cells) was “probe velocities were consistent with the amount of CAPE added” and the “effect on CA-AMCA turnover in L. plantarum lysate” value [7] was “Activity was not observed”.

For `C[C@H](CCC(=O)NCC(=O)O)[C@H]1CC[C@H]2[C@@H]3[C@H](O)C[C@@H]4C[C@H](O)CC[C@]4(C)[C@H]3C[C@H](O)[C@]12C` [glycocholic acid], the “effect on CA-AMCA turnover by BSH” value (purified BSH [8]; GCA 10 mM) was “Attenuated activity”.

For `NC(=O)CI` [iodoacetamide, reference compound], the “effect of pre-treatment on BA-ABP binding to BSH” value ([4]; pre-treatment before probe) was “Binding was ablated” and the “effect on CA-AMCA turnover by BSH” value (purified BSH [8]; IAA 12 mM) was “completely ablated substrate turnover”.

B1: bile salt hydrolase (BSH), purified (Lactiplantibacillus plantarum WCFS1) (protein)
chain: T1 sequence (Q06115 1-324)
Work on B1 yielded a Km ([9]; FIG. 8B) of 31.48 µM and a Km ([9]; FIG. 8C) of 22.57 µM.
